# In US20240226066A1, “CARDIOPROTECTION BY AUTOPHAGY INDUCTION AND METABOLIC REPROGRAMMING” (UNIVERSITE PARIS-SACLAY, priority 2021, published 2024):
# Like-named read-outs stand apart in the source and are kept apart here.
# Tests used:
# BCL-XL = experiment: Western blot of BCL-XL expression in RNVCs; format: cell-based, rat; conditions: 6 h treatment
# Method: Levels of protein expression of BCL-2 (FIG. 3A and FIG. 3B) BXL-XL (FIG. 3C) and BAX (FIG. 3C), in the RNVCs after 6 h of treatment (FIG. 3A, FIG. 3C, FIG. 3D) or 24 h (FIG. 3B). Co., untreated cell control. Each experiment was reproduced at least three times. Representative western blotting images and quantification of three independent experiments are presented as mean±SEM with single-factor ANOVA, with multiple Sidak comparisons. *, p<0.05 with respect to DMSO.
# (§1) The H9C2 cells and RNVCs were detached in LB containing: 50 mM Tris, 150 mM NaCl, 1 mM EDTA, 0.5% deoxycholate, 1% Triton X 100, 0.1% SDS (pH 8.0). The cells were collected and placed on ice for 30 minutes. The cells were then centrifuged at 2000 g for 20 minutes at for 4° C. The supernatant was transferred to a new tube and stored on ice. The protein concentration was determined by BCA assay. The protein samples were diluted with sample buffer (2× Laemmli, Sigma), mixed, and heated for 5 minutes at 95° C. […] The images were recorded with a gel imaging system (Bio Rad). […]
# hERG potassium channel = biological target: T1, hERG potassium channel (Homo sapiens, UniProt Q12809); experiment: hERG channel binding assay ([3H]dofetilide displacement); conditions: for inhibition at 10 µM: human, probe [3H]dofetilide
# T1 construct: Eurofins
# T1 sequence (Q12809 whole entry): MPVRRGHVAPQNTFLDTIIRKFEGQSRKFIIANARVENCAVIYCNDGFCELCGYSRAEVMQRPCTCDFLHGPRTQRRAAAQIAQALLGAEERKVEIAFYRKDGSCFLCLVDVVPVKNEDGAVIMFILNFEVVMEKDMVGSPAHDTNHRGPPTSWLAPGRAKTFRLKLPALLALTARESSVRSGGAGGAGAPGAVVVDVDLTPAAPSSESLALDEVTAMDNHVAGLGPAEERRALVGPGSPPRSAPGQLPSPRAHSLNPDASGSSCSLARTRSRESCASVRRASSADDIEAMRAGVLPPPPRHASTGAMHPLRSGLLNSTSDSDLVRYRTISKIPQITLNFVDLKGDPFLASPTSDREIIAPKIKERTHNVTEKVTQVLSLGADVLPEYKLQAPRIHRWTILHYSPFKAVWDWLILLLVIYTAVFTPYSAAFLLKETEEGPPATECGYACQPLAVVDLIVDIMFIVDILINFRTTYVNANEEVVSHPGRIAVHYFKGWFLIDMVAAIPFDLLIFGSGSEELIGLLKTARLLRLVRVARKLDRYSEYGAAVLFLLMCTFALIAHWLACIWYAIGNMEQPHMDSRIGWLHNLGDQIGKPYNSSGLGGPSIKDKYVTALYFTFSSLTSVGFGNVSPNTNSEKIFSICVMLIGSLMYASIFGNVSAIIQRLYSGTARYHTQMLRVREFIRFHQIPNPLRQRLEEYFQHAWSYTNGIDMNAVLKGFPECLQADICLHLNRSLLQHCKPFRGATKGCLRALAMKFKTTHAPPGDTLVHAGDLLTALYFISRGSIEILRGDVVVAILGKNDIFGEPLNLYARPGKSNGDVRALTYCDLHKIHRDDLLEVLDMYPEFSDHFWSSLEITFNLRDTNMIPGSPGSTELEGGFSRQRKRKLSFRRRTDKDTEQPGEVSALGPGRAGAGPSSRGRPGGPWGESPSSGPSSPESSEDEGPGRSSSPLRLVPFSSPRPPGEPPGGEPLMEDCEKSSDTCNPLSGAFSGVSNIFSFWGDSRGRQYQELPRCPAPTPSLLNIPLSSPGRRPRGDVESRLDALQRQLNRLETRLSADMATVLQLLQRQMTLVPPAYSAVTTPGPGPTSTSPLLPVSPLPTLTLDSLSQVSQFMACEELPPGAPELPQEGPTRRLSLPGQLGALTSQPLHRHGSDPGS
# Method: The evaluation of the binding of the compounds to the human hERG potassium channel was carried out as described previously (Eurofins).
# Since the blocking of the human potassium channel hERG channel may be responsible for cardiac fibrillation leading to cardiac arrest and death of the patient, the binding of the 3 molecules SG6163F, VP331 and LOPA87 to this receptor was evaluated.
# RNVCs = experiment: Autophagosome formation after GFP-LC3 plasmid transfection (fluorescence microscopy); format: cell-based, rat; conditions: GFP-LC3 transfected RNVCs
# Method: FIG. 4D: after transfection of the plasmid GFP-LC3, the fluorescent green GFP-LC3 spots were visualized by fluorescence microscopy and quantified with ImageJ to verify autophagosome formation. Data are presented as mean±SEM with single-factor ANOVA, and multiple Sidak comparisons. ***, p<0.001 with respect to 0.01% DMSO.
# On day 0, 4×10^5 neonatal cardiomyocytes were plated overnight in laminin-coated 35 mm culture dishes (10 μg/ml). On day 1, the cells were transfected with 1 μg of GFP-LC3 plasmid using the transfection reagent Lipofectamine® 2000 (1 μg of GFP-LC3 corresponds to 2.5 μl of transfection reagent), for 48 h, then the green fluorescence was detected with a Leica confocal microscope (SP5). The analyses were carried out with the ImageJ program (Wayne Rasband, National Institutes of Health, USA).
# (§2) Next, the hypothesis that the compounds could protect cardiac cells by activating autophagy, a catabolic process conserved in evolution that involves the degradation of damaged cytoplasmic components, was formulated. […] Then, the cells were treated with the hits and with H2O2 for 2 hours and their survival was analyzed 4 hours later by measuring LDH release (FIGS. 4B, 4C). […] In order to confirm the induction of autophagy by another approach, the RNVCs were transfected with a GFP-LC3 plasmid and the formation of the autophagosome was monitored 24 hours later. […]
# LC3II = experiment: LC3 I/II conversion by western blot in RNVCs; format: cell-based, rat; conditions: 1 μM
# Method: FIG. 4E: LC3-I/II protein levels in the RNVCs. Data are presented as mean±SEM with single-factor ANOVA, and multiple Sidak comparisons. *, p<0.05, **, p<0.01 with respect to DMSO.
# as §1, §2
SMILES,expression of BCL-XL (BCL-XL),"inhibition at 10 µM (hERG potassium channel; inhibition of tritiated dofetilide binding, only values >50% considered effective, read-out: % inhibit 1st assay) [%]","inhibition at 10 µM (hERG potassium channel; inhibition of tritiated dofetilide binding, only values >50% considered effective, read-out: % inhibit 2nd assay) [%]","inhibition at 10 µM (hERG potassium channel; mean of two independent measurements, read-out: % inhibit Mean) [%]",binding to the hERG channel (hERG potassium channel; inhibition of specific binding of [3H]dofetilide in vitro),formation of autophagosomes (RNVCs),increase in level of expression of LC3II (LC3II) [fold]
C[C@H]1O[C@@H](O[C@H]2[C@@H](O)C[C@H](O[C@H]3[C@@H](O)CC(O[C@H]4CC[C@@]5(C)[C@H](CC[C@@H]6[C@@H]5C[C@@H](O)[C@]5(C)[C@@H](C7=CC(=O)OC7)CC[C@]65O)C4)O[C@@H]3C)O[C@@H]2C)C[C@H](O)[C@@H]1O (stereo partly shown) [digoxin],caused a decrease,,,,,,
O=C1NC(c2ccccc2)=N/C1=C\c1cc2ccccc2c2ccccc12 [SG6163F],,40.5,36.6,38.5,negligible,capable of causing the formation of autophagosomes,> 1.5
